Test results reported in patent US12509451B2, “Heteroaryl amide inhibitors of CD38” (NAPA THERAPEUTICS LTD., priority 2020, dated 2025).
pIC50: −log10 of the molar value.

How the values were obtained:
[1] = target: T1, recombinant human CD38 Protein (Homo sapiens, UniProt P28907); assay: Fluorescence-based NAD+ cyclase activity assay with human recombinant CD38 protein (Assay 2); type: biochemical; conditions: read-out: Assay 2 Arithmetic mean IC50
T1 construct: purchased R&D System
T1 sequence (P28907 1-300): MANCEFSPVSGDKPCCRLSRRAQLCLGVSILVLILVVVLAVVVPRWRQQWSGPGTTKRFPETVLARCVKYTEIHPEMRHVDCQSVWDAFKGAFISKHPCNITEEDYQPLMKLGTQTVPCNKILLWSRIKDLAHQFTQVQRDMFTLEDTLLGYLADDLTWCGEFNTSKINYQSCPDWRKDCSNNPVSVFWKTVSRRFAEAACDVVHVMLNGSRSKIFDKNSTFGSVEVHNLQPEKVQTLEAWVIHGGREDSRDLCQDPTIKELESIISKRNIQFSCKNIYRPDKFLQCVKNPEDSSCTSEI
Procedure: This protocol was modified from the de Oliveira et al., 2018 reference, supra.
NAD+ cyclase activity of the human recombinant CD38 protein treated with test compounds was measured using a fluorescence-based assay. Briefly, recombinant human CD38 Protein (R&D System) was resuspended in 44 μl/well of Sucrose-Tris Buffer (Sucrose 0.25 M, Tris pH 7.4 40 mM) and plated in a 96-well black plate (CORNING) at a density of 125 ng/well.
Each test compound was received in a powder state and dissolved in DMSO as a 25 mM stock solution. Each test compound was serially diluted in order to generate a dose-response curve. The dilution series of each test compound in DMSO was prepared at 50 times the concentrations to be assayed. Each test compound was diluted to generate a 5-fold dilution series of 8 concentrations from 100 μM to 32 nM in order to assay 8 final concentrations ranging from 2 μM to 0.64 nM. One μl of the 50× concentration compound series was added to each well of the plate containing 125 ng of protein in Sucrose-Tris buffer.
The reaction was started adding nicotinamide guanine dinucleotide (NGD+) (Sigma Aldrich) to reach a final concentration of 150 µM. The samples were excited at 337-15 nm, and the emission of fluorescence was measured at 442-20 nm at 37° C. every minute for 1 hr in a Clariostar microplate reader (BMG LABTECH). NAD+ cyclase activity was calculated as the slope of the linear portion of the fluorescence-time curve using the MARS data analysis software (BMG LABTECH). The data were uploaded in the Collaborative Drug Design (CDD) Software, and for each compound the IC50 was calculated by the software. For each plate, the z-factor was also calculated as a plate quality using the CDD software.

[2] = target: T2, recombinant mouse CD38 Protein (Mus musculus, UniProt P56528); assay: Fluorescence-based NAD+ hydrolase activity assay with mouse recombinant CD38 protein (Assay 5); type: biochemical; conditions: read-out: Assay 5 Arithmetic mean IC50
T2 construct: purchased R&D System
T2 sequence (P56528 1-304): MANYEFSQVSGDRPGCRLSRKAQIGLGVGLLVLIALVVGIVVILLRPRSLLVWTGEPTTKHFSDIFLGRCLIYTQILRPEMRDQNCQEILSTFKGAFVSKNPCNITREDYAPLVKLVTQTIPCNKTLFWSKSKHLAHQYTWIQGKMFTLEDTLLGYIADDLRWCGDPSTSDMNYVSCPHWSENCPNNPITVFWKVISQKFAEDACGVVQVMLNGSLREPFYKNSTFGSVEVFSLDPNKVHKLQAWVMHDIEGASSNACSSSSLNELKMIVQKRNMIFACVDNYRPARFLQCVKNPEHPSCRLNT
Procedure, shortened: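 Recombinant mouse CD38 (2.5 ng/well) in 0.25 M sucrose, 40 mM Tris pH 7.4, with compound at 8 final concentrations from 400 nM to 25.6 pM; reaction started with 80 µM etheno-NAD+. Fluorescence (ex 321, em 410 nm) read each minute for 1 h at 37 °C; activity as linear slope, IC50 from 3 independent experiments.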

| pIC50 [1] | pIC50 [2] | Compound |
| --- | --- | --- |
| 6.00 to 7.29 | > 9.00 | Cc1cc(C(=O)Nc2cccnc2)nc(-n2ccnc2)c1 [Compound 53] |
| 7.30 to 9.00 | > 9.00 | Cc1cc(C(=O)Nc2ccc(C(N)=O)nc2)nc(-n2ccnc2)c1 [Compound 54, N-(6-carbamoylpyridin-3-yl)-6-(1H-imidazol-1-yl)-4-methylpicolinamide] |
| 6.00 to 7.29 | > 9.00 | Cc1cc(C(=O)Nc2ccnc(C(N)=O)c2)nc(-n2ccnc2)c1 [Compound 55] |
| 6.00 to 7.29 | > 9.00 | CNC(=O)c1cc(NC(=O)c2cc(C)cc(-n3ccnc3)n2)ccn1 [Compound 56] |
| 7.30 to 9.00 | > 9.00 | CNC(=O)c1ccc(NC(=O)c2cc(C)cc(-n3ccnc3)n2)cn1 [Compound 57] |
| 6.00 to 7.29 | 7.30 to 9.00 | Cc1ccc(-n2ccnc2)nc1C(=O)Nc1cccnc1 [Compound 59, 6-(1H-imidazol-1-yl)-3-methyl-N-(pyridin-3-yl)picolinamide] |
| 5.00 to 6.00 | 7.30 to 9.00 | O=C(Nc1cccnc1)c1ccc(F)c(-n2ccnc2)n1 [Compound 61] |
| 5.00 to 6.00 | 7.30 to 9.00 | O=C(Nc1cccnc1)c1nc(-n2ccnc2)ccc1F [Compound 62] |
| 6.00 to 7.29 | 7.30 to 9.00 | Nc1cc(C(=O)Nc2cccnc2)nc(-n2ccnc2)c1 [Compound 67] |
